In article PMC8467763, “The Central PXXP Motif Is Crucial for PMAP-23 Translocation across the Lipid Bilayer” (International Journal of Molecular Sciences, 2021):
Ends that are not written are not given here.

Tests used:
Escherichia coli = format: cell-based
Method: (§1) The antimicrobial activity of the peptides was tested against gram-positive Staphylococcus aureus and gram-negative Escherichia coli by a broth microdilution method, as described previously. Briefly, a colony of bacteria was incubated in culture medium (10 mL) and incubated at 37 °C for 14–18 h. After an aliquot (50 μL) of this culture was transferred to fresh culture medium (10 mL), each bacterial strain was grown to reach the mid-logarithmic phase. A total of 100 μL of bacteria (2 × 10^6 CFU/mL) were added to 96-well microtiter plates in the presence of serial dilutions of peptides. […] Measurements were repeated at least three times in triplicate.

Staphylococcus aureus = format: cell-based
Method: as §1

Sequence | MIC E. coli (Escherichia coli) [µM] | MIC S. aureus (Staphylococcus aureus) [µM]
RIIDLLWRVRRAQKAKFVTVWVR [PMAP-PA] | 8 to 16 | 8 to 16
RIIDLLWRVRRGQKGKFVTVWVR [PMAP-PG] | 8 to 16 | 
RIIDLLWRVRRPQKPKFVTVWVR [PMAP-23] | 2 to 4 | 2 to 4
